The numbers were not newly measured in patent US6461603B2, “Water-soluble polymer conjugates of artelinic acid” (Shearwater Corporation, priority 2000, dated 2002), which cites them from elsewhere.

Take `C[C@@H]1CC[C@H]2[C@@H](C)C(OCc3ccc(C(=O)O)cc3)O[C@@H]3O[C@]4(C)CC[C@@H]1[C@]32OO4` (some centres unmarked) [artelinic acid]: where the note is “background statement”, the water solubility entry is “low”.

Take `C[C@H]1[C@@H](OCc2ccc(C(=O)O)cc2)O[C@@H]2O[C@]3(C)CC[C@H]4[C@H](C)CC[C@@H]1[C@@]24OO3` [sodium artelinate]: the “solubility at physiological pH” value (physiological pH, higher pH required for desirable solubility) was “not highly soluble”.
